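These data come from cells grown in 96-well plates and exposed to compound for 48 hours at five concentrations. GI50: concentration for 50% inhibition of growth. TGI: concentration producing complete growth inhibition.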
What was measured:
Test in all cases: growth of human tumour cells (NCI), 48 h
[1] = system: MCF7 breast
[2] = system: U251 CNS
[3] = system: SW-620 colon
[4] = system: SNB-19 CNS
[5] = system: NCI-H23 lung
[6] = system: NCI-H522 lung
[7] = system: SF-268 CNS
[8] = system: EKVX NSCLC
[9] = system: HOP-62 NSCLC
[10] = system: SF-539 CNS
[11] = system: 786-0 renal
[12] = system: A549 NSCLC
[13] = system: SK-OV-3 ovarian
[14] = system: TK-10 renal
[15] = system: HS 578T breast
[16] = system: MDA-MB-435
[17] = system: UACC-62 melanoma
[18] = system: HCT-116 colon
[19] = system: M14 melanoma
[20] = system: HT29 colon
[21] = system: SN12C renal
[22] = system: SNB-75 CNS
[23] = system: SK-MEL-5 melanoma
[24] = system: SK-MEL-28 melanoma
[25] = system: SK-MEL-2 melanoma
[26] = system: SF-295 CNS
[27] = system: A498 renal
[28] = system: MALME-3M melanoma
[29] = system: CAKI-1 renal
[30] = system: NCI-H460 lung
[31] = system: HCT-15 colon
[32] = system: BT-549 breast
[33] = system: ACHN renal
[34] = system: T-47D breast
[35] = system: MDA-MB-231 breast
[36] = system: OVCAR-5 ovarian
[37] = system: OVCAR-8 ovarian
[38] = system: IGROV1 ovarian
[39] = system: COLO 205 colon
[40] = system: HL-60(TB) leukemia
[41] = system: OVCAR-4 ovarian
[42] = system: HCC-2998 colon
[43] = system: KM12 colon
[44] = system: DU-145 prostate
[45] = system: LOX IMVI melanoma
[46] = system: OVCAR-3 ovarian
[47] = system: RXF 393 renal
[48] = system: K-562 leukemia

## CC1=C([Se]CC(OC(=O)[C@@H](CSSC(C)(C)C)NC(=O)OC(C)(C)C)C(=O)NC(C)(C)C)C(=O)c2ccccc2C1=O (stereo partly specified)
[1]
  GI50: 1.46 µM
  TGI: 3.12 µM
[2]
  GI50: 0.675 µM
  TGI: 1.94 µM
[3]
  GI50: 1.43 µM
  TGI: 2.73 µM
[4]
  GI50: 0.451 µM
  TGI: 1.69 µM
[5]
  GI50: 1.82 µM
  TGI: 4.61 µM
[6]
  GI50: 1.55 µM
  TGI: 2.99 µM
[7]
  GI50: 1.96 µM
  TGI: 3.39 µM
[8]
  GI50: 1.51 µM
  TGI: 3.11 µM
[9]
  GI50: 0.762 µM
  TGI: 2.81 µM
[10]
  GI50: 1.43 µM
  TGI: 2.74 µM
[11]
  GI50: 1.65 µM
  TGI: 3.01 µM
[12]
  GI50: 1.28 µM
  TGI: 2.66 µM
[13]
  GI50: 1.36 µM
  TGI: 2.64 µM
[14]
  GI50: 1.6 µM
  TGI: 2.95 µM
[15]
  GI50: 1.31 µM
  TGI: 2.69 µM
[16]
  GI50: 1.64 µM
  TGI: 3 µM
[17]
  GI50: 1.51 µM
  TGI: 2.84 µM
[18]
  GI50: 0.49 µM
  TGI: 1.7 µM
[19]
  GI50: 1.26 µM
  TGI: 2.58 µM
[20]
  GI50: 2.3 µM
  TGI: 6.3 µM
[21]
  GI50: 1.37 µM
  TGI: 2.74 µM
[22]
  GI50: 1.3 µM
  TGI: 2.59 µM
[23]
  GI50: 1.59 µM
  TGI: 2.94 µM
[24]
  GI50: 1.62 µM
  TGI: 2.98 µM
[25]
  GI50: 1.47 µM
  TGI: 2.88 µM
[26]
  GI50: 1.22 µM
  TGI: 3.19 µM
[27]
  GI50: 1.42 µM
  TGI: 3.83 µM
[28]
  GI50: 1.18 µM
  TGI: 2.41 µM
[29]
  GI50: 1.66 µM
  TGI: 3.02 µM
[30]
  GI50: 0.364 µM
  TGI: 1.32 µM
[31]
  GI50: 1.66 µM
  TGI: 3.12 µM
[32]
  GI50: 1.24 µM
  TGI: 2.5 µM
[33]
  GI50: 1.51 µM
  TGI: 2.84 µM
[34]
  GI50: 1.44 µM
  TGI: 3.48 µM
[35]
  GI50: 1.45 µM
  TGI: 2.76 µM
[36]
  GI50: 1.73 µM
  TGI: 3.24 µM
[37]
  GI50: 1.36 µM
  TGI: 2.73 µM
[38]
  GI50: 1.15 µM
  TGI: 2.36 µM
[39]
  GI50: 1.67 µM
  TGI: 3.15 µM
[40]
  GI50: 0.255 µM
  TGI: 1.23 µM
[41]
  GI50: 1.49 µM
  TGI: 2.87 µM
[42]
  GI50: 1.54 µM
  TGI: 3.1 µM
[43]
  GI50: 1.26 µM
  TGI: 2.51 µM
[44]
  GI50: 1.81 µM
  TGI: 3.22 µM
[45]
  GI50: 1.47 µM
  TGI: 2.79 µM
[46]
  GI50: 1.89 µM
  TGI: 3.3 µM
[47]
  GI50: 1.5 µM
  TGI: 2.82 µM
[48]
  GI50: 1.28 µM
  TGI: 2.62 µM

From PubChem BioAssay (NCI)
